Reference: ChEMBL document CHEMBL3769377, “A synthesis, in silico, in vitro and in vivo study of thieno[2,3-b]pyridine anticancer analogues” (Medchemcomm, 2015)

How the values were obtained:
[1] = target: Cyclin-dependent kinase 9 (Homo sapiens) (UniProt P50750); assay: Inhibition of human recombinant CDK9 assessed as residual activity at 10 uM after 1 hr by qPCR analysis relative to control
[2] = target: Serine/threonine-protein kinase Chk1 (Homo sapiens) (UniProt O14757); assay: Inhibition of human recombinant CHEK1 assessed as residual activity at 10 uM after 1 hr by qPCR analysis relative to control
[3] = target: Macrophage colony-stimulating factor 1 receptor (Homo sapiens) (UniProt P07333); assay: Inhibition of human recombinant CSF1R assessed as residual activity at 10 uM after 1 hr by qPCR analysis relative to control
[4] = target: Casein kinase I isoform gamma-2 (Homo sapiens) (UniProt P78368); assay: Inhibition of human recombinant CSNK1G2 assessed as residual activity at 10 uM after 1 hr by qPCR analysis relative to control
[5] = target: Epidermal growth factor receptor (Homo sapiens) (UniProt P00533); assay: Inhibition of human recombinant EGFR assessed as residual activity at 10 uM after 1 hr by qPCR analysis relative to control
[6] = system: Epidermal growth factor receptor (Homo sapiens), P00533 [L858R]; assay: Inhibition of human recombinant EGFR L858R mutant assessed as residual activity at 10 uM after 1 hr by qPCR analysis relative to control; assay type: protein assay
[7] = target: Receptor tyrosine-protein kinase erbB-2 (Homo sapiens) (UniProt P04626); assay: Inhibition of human recombinant ERBB2 assessed as residual activity at 10 uM after 1 hr by qPCR analysis relative to control
[8] = target: Receptor tyrosine-protein kinase erbB-4 (Homo sapiens) (UniProt Q15303); assay: Inhibition of human recombinant ERBB4 assessed as residual activity at 10 uM after 1 hr by qPCR analysis relative to control
[9] = target: Focal adhesion kinase 1 (Homo sapiens) (UniProt Q05397); assay: Inhibition of human recombinant FAK assessed as residual activity at 10 uM after 1 hr by qPCR analysis relative to control
[10] = target: Fibroblast growth factor receptor 2 (Homo sapiens) (UniProt P21802); assay: Inhibition of human recombinant FGFR2 assessed as residual activity at 10 uM after 1 hr by qPCR analysis relative to control
[11] = target: Insulin-like growth factor 1 receptor (Homo sapiens) (UniProt P08069); assay: Inhibition of human recombinant IGF1R assessed as residual activity at 10 uM after 1 hr by qPCR analysis relative to control
[12] = target: Tyrosine-protein kinase JAK2 (Homo sapiens) (UniProt O60674); assay: Inhibition of human recombinant JAK2 (JH1 domain-catalytic) assessed as residual activity at 10 uM after 1 hr by qPCR analysis relative to control
[13] = target: Hepatocyte growth factor receptor (Homo sapiens) (UniProt P08581); assay: Inhibition of human recombinant MET assessed as residual activity at 10 uM after 1 hr by qPCR analysis relative to control
[14] = target: Platelet-derived growth factor receptor alpha (Homo sapiens) (UniProt P16234); assay: Inhibition of human recombinant PDGFRA assessed as residual activity at 10 uM after 1 hr by qPCR analysis relative to control
[15] = target: Serine/threonine-protein kinase pim-1 (Homo sapiens) (UniProt P11309); assay: Inhibition of human recombinant PIM1 assessed as residual activity at 10 uM after 1 hr by qPCR analysis relative to control
[16] = target: Serine/threonine-protein kinase pim-3 (Homo sapiens) (UniProt Q86V86); assay: Inhibition of human recombinant PIM3 assessed as residual activity at 10 uM after 1 hr by qPCR analysis relative to control
[17] = target: Serine/threonine-protein kinase PLK3 (Homo sapiens) (UniProt Q9H4B4); assay: Inhibition of human recombinant PLK3 assessed as residual activity at 10 uM after 1 hr by qPCR analysis relative to control
[18] = target: Protein kinase C epsilon type (Homo sapiens) (UniProt Q02156); assay: Inhibition of human recombinant PRKCE assessed as residual activity at 10 uM after 1 hr by qPCR analysis relative to control
[19] = target: Proto-oncogene tyrosine-protein kinase receptor Ret (Homo sapiens) (UniProt P07949); assay: Inhibition of human recombinant RET assessed as residual activity at 10 uM after 1 hr by qPCR analysis relative to control
[20] = target: Ribosomal protein S6 kinase alpha-3 (Homo sapiens) (UniProt P51812); assay: Inhibition of human recombinant N-terminal RSK2 kinase domain 1 assessed as residual activity at 10 uM after 1 hr by qPCR analysis relative to control
[21] = target: NUAK family SNF1-like kinase 2 (Homo sapiens) (UniProt Q9H093); assay: Inhibition of human recombinant SNARK assessed as residual activity at 10 uM after 1 hr by qPCR analysis relative to control
[22] = target: Serine/threonine-protein kinase ULK2 (Homo sapiens) (UniProt Q8IYT8); assay: Inhibition of human recombinant ULK2 assessed as residual activity at 10 uM after 1 hr by qPCR analysis relative to control
[23] = target: Serine/threonine-protein kinase 32C (Homo sapiens) (UniProt Q86UX6); assay: Inhibition of human recombinant YANK3 assessed as residual activity at 10 uM after 1 hr by qPCR analysis relative to control
[24] = target: Cyclin-dependent kinase 11B (Homo sapiens) (UniProt P21127); assay: Inhibition of human recombinant CDK11 assessed as residual activity at 10 uM after 1 hr by qPCR analysis relative to control
[25] = target: Tyrosyl-DNA phosphodiesterase 1 (Homo sapiens, UniProt Q9NUW8); assay: Inhibition of recombinant human N-terminal His-tagged TDP1 (1824 bp) expressed in Escherichia coli BL21(DE3) cells using 5'-(5,6 FAM-AAC GTC AGG GTC TTC C-BHQ1)-3' as substrate measured every 1 min by RT-PCR method
[26] = target: Tyrosine-protein kinase ABL1 (Homo sapiens) (UniProt P00519); assay: Inhibition of human recombinant non-phosphorylated ABL1 assessed as residual activity at 10 uM after 1 hr by qPCR analysis relative to control
[27] = target: ALK tyrosine kinase receptor (Homo sapiens) (UniProt Q9UM73); assay: Inhibition of human recombinant ALK assessed as residual activity at 10 uM after 1 hr by qPCR analysis relative to control
[28] = target: Aurora kinase A (Homo sapiens) (UniProt O14965); assay: Inhibition of human recombinant AURKA assessed as residual activity at 10 uM after 1 hr by qPCR analysis relative to control
[29] = target: Tyrosine-protein kinase receptor UFO (Homo sapiens) (UniProt P30530); assay: Inhibition of human recombinant AXL assessed as residual activity at 10 uM after 1 hr by qPCR analysis relative to control
[30] = target: Cyclin-dependent kinase 3 (Homo sapiens) (UniProt Q00526); assay: Inhibition of human recombinant CDK3 assessed as residual activity at 10 uM after 1 hr by qPCR analysis relative to control

Sequence of Serine/threonine-protein kinase ULK2 (Homo sapiens) (Q8IYT8 whole entry): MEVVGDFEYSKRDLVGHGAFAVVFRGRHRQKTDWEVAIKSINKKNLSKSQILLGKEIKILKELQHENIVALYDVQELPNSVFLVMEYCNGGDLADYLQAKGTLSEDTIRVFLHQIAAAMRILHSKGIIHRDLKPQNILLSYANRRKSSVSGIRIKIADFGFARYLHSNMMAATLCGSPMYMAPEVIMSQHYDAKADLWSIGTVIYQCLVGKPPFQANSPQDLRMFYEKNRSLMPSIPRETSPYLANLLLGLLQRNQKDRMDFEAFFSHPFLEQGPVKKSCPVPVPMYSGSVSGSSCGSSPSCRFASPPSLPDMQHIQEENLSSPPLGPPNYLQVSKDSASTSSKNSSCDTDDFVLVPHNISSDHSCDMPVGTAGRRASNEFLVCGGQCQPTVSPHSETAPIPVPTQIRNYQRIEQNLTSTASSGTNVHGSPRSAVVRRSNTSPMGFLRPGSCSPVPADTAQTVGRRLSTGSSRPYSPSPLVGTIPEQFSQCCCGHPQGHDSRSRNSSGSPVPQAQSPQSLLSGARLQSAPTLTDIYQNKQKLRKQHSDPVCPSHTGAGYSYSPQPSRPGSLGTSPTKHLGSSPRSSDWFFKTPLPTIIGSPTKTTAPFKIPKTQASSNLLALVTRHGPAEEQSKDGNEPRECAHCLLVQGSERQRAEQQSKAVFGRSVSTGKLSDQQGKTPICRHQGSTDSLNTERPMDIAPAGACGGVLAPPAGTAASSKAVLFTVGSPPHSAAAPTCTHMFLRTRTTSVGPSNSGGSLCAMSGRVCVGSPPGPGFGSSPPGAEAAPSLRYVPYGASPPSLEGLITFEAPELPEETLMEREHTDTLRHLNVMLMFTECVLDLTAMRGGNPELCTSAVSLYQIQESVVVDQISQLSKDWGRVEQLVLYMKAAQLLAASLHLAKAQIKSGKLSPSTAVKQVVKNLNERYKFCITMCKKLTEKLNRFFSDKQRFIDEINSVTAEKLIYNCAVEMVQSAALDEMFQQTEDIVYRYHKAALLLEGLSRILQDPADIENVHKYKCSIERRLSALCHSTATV
Sequence of Focal adhesion kinase 1 (Homo sapiens) (Q05397 2-1052 limits assumed): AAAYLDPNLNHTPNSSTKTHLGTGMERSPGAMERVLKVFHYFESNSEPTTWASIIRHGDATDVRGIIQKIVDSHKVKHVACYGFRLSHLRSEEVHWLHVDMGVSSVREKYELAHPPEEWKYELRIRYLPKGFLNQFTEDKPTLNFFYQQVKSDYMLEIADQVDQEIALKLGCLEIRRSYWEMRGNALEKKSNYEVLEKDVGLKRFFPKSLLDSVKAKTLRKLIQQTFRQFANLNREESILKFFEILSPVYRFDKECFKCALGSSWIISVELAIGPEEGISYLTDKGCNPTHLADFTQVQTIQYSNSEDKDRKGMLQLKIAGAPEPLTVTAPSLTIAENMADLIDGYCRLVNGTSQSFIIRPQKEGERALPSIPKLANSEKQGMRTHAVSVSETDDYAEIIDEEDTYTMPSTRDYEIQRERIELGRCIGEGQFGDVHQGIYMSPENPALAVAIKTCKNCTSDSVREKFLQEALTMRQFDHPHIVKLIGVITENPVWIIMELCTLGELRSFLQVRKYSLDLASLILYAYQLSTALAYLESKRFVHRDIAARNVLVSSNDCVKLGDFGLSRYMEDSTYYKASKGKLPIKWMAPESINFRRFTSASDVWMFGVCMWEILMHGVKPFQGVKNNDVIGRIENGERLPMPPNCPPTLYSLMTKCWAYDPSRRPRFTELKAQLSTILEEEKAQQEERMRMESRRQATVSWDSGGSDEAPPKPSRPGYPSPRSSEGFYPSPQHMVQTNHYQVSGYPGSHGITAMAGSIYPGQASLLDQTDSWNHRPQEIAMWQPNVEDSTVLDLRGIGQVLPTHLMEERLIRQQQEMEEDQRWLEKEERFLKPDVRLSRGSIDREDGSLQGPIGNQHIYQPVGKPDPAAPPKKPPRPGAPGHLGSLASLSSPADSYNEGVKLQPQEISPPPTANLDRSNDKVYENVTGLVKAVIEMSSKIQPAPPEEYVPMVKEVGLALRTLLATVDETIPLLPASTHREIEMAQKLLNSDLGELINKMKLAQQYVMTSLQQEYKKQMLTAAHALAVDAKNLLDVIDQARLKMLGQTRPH
Sequence of Serine/threonine-protein kinase Chk1 (Homo sapiens) (O14757 whole entry): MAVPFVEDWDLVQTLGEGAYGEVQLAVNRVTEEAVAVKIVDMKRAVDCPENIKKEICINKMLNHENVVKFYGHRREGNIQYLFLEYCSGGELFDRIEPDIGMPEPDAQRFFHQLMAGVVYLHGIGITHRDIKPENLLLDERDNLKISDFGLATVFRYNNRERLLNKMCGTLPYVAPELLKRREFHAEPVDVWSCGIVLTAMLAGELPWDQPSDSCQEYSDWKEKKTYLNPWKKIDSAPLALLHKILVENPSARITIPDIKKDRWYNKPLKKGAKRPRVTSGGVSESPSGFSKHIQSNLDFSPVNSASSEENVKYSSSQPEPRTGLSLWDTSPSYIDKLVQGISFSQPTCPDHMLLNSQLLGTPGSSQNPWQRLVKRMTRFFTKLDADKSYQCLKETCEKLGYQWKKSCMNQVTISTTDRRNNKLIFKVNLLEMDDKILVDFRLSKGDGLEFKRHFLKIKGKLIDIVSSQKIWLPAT
Sequence of Ribosomal protein S6 kinase alpha-3 (Homo sapiens) (P51812 whole entry, the tested form may be a part): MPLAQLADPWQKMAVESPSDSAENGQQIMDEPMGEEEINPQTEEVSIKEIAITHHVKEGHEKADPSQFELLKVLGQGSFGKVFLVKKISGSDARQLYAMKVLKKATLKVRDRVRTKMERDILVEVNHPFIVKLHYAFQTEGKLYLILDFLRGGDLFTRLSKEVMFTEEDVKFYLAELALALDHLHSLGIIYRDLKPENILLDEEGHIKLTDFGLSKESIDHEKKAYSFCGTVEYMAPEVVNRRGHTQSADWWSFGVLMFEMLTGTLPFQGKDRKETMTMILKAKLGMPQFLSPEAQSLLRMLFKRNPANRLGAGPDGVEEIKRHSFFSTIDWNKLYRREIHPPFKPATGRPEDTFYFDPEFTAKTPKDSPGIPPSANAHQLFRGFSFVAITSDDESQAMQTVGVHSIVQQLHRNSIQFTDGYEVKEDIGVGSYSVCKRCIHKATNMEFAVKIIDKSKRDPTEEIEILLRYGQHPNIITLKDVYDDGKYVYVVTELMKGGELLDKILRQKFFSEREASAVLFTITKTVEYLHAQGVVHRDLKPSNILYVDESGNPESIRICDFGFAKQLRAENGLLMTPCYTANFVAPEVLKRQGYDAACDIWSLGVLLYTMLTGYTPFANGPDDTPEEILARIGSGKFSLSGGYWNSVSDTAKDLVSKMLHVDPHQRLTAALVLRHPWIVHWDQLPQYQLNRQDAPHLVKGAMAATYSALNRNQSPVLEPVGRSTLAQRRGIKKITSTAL
Sequence of NUAK family SNF1-like kinase 2 (Homo sapiens) (Q9H093 whole entry): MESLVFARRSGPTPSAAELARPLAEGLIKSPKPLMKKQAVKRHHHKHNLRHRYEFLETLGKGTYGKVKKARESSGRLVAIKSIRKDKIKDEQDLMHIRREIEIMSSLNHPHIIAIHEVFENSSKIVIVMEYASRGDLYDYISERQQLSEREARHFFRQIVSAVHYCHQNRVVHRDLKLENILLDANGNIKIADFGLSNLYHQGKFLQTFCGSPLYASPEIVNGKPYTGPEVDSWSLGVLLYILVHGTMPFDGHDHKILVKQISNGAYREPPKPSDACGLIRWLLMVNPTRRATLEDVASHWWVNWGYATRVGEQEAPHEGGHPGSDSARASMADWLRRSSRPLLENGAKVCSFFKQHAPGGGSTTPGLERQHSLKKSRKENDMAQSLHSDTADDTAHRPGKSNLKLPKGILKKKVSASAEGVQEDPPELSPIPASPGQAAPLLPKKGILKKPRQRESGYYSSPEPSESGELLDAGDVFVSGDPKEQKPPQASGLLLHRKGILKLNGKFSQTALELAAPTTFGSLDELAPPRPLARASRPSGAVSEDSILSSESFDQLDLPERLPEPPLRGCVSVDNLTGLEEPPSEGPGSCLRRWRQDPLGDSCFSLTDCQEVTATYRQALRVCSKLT
Sequence of Macrophage colony-stimulating factor 1 receptor (Homo sapiens) (P07333 whole entry, canonical isoform): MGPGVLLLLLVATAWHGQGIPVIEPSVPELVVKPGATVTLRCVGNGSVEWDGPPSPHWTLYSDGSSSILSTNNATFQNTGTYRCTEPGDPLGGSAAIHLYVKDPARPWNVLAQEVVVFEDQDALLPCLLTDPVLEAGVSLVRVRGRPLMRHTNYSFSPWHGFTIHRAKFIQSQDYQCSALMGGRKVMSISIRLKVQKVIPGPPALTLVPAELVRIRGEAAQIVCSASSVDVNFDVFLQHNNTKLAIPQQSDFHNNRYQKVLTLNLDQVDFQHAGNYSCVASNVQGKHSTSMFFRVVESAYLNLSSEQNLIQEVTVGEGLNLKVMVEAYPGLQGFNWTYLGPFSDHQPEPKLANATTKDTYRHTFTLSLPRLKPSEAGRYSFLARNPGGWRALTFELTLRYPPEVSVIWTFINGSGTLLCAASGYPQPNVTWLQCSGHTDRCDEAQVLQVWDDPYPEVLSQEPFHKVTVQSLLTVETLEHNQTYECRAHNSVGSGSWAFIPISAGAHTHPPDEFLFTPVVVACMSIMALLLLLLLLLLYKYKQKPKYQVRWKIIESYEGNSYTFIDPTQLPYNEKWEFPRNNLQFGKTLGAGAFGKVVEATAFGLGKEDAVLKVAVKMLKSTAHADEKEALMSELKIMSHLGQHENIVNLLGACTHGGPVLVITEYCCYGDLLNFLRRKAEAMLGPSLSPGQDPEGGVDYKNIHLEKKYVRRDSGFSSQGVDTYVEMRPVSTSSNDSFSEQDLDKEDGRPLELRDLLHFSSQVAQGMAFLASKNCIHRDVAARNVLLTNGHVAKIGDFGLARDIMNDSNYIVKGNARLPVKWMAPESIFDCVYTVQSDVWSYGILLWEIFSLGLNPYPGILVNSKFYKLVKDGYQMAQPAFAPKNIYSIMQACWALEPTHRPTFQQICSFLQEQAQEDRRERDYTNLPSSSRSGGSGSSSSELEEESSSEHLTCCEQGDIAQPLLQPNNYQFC

Cc1c(Cl)cccc1NC(=O)c1sc2nc3c(cc2c1N)C(=O)CC3
Activity [1]: 100% | Activity [2]: 94% | Activity [3]: 100% | Activity [4]: 97% | Activity [5]: 100% | Activity [6]: 92% | Activity [7]: 100% | Activity [8]: 100% | Activity [9]: 100% | Activity [10]: 100% | Activity [11]: 97% | Activity [12]: 94% | Activity [13]: 100% | Activity [14]: 100% | Activity [15]: 73% | Activity [16]: 92% | Activity [17]: 100% | Activity [18]: 100% | Activity [19]: 100% | Activity [20]: 94% | Activity [21]: 100% | Activity [22]: 97% | Activity [23]: 62% | Activity [24]: 100% | IC50 [25]: 2200 nM | Activity [26]: 98% | Activity [27]: 100% | Activity [28]: 98% | Activity [29]: 100% | Activity [30]: 100%
